Experimental data: paper PMC2810320 (Journal of the American Chemical Society, 2010)

Legend:
porcine bc1 complex [1] = biological target: T1, porcine bc1 complex (Sus scrofa, UniProt P24964); assay: Ubiquinol-cytochrome c reductase; type: biochemical
porcine bc1 complex [2] = biological target: T1, porcine bc1 complex; assay: Succinate-cytochrome c reductase; type: biochemical; details: for ΔG ΔGexp.: ΔGexp. = −RTlnKi
[3] = DBH2 and cytochrome c as substrates, pH 6.5, 750 µM lauryl maltoside

T1 sequence (P24964 whole entry, one chain of several): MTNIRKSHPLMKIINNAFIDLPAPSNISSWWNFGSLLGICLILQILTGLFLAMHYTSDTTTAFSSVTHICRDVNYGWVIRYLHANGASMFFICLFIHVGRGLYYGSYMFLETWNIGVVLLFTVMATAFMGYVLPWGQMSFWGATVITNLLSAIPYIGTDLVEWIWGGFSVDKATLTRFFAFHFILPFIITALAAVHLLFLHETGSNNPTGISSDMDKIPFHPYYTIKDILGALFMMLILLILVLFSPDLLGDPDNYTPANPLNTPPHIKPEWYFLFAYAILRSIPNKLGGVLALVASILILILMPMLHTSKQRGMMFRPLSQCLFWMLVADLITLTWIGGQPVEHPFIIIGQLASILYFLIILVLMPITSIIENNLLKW

| Compound | ΔG ΔGexp. (porcine bc1 complex [2]) [kcal/mol] | further results |
| --- | --- | --- |
| CO/C=C(/C(=O)OC)c1ccccc1COc1cc(-c2cc(Cl)ccc2O)nn1C [Compound 5c] | -12.63 | Ki (porcine bc1 complex [1]): 2.6 ± 0.1 nM; microscopic inhibition rate constant k+0 (porcine bc1 complex [1]; [3]): 1.85e+06 ± 30000 M⁻¹ s⁻¹; microscopic inhibition rate constant k−0 (porcine bc1 complex [1]; [3]): 0.0048 ± 0.00018 s⁻¹; Ki fold higher than that measured from succinate-cytochrome c reductase activity inhibition (porcine bc1 complex [1]; DBH2 assay Ki vs SCR assay Ki): about 5 fold; type of inhibition with respect to substrate ubiquinol (porcine bc1 complex [1]; varying DBH2 20–115 µM): competitive inhibitor; type of inhibition with respect to substrate cytochrome c (porcine bc1 complex [2]; kobs independent of cytochrome c concentration, 5 nM 5c): non-competitive inhibitor; kon (porcine bc1 complex [2]; pH 7.4, read-out: apparent rate constant A (association rate constant k+0)): 6.31e+06 ± 360000 M⁻¹ s⁻¹; koff (porcine bc1 complex [2]; pH 7.4, read-out: apparent rate constant B (dissociation rate constant k−0)): 0.00358 s⁻¹; fold improved binding affinity compared to AZ (porcine bc1 complex [2]; ratio of Ki values, vs AZ): about 522 fold |
| COC(=O)N(OC)c1ccccc1COc1ccn(-c2ccc(Cl)cc2)n1 [PY, pyraclostrobin, reference compound] | -11.59 |  |
| CO/C=C(/C(=O)OC)c1ccccc1COc1cc(-c2ccccc2OC)nn1C [Compound 6a] | -10.29 |  |
| CO/C=C(/C(=O)OC)c1ccccc1COc1cc(-c2ccccc2OC(=O)c2ccc(F)cc2)nn1C [Compound 6d] | -9.56 |  |
| CO/C=C(/C(=O)OC)c1ccccc1Oc1cc(Oc2ccccc2C#N)ncn1 [AZ, azoxystrobin, reference compound] | -8.92 |  |
| CO/N=C(/C(=O)OC)c1ccccc1COc1ccccc1C [KM, kresoxim-methyl, reference compound] | -9.28 |  |
| CO/N=C(/C(=O)OC)c1ccccc1COc1cc(-c2ccccc2O)nn1C [Compound 5d] | -11.50 |  |
| CO/C=C(/C(=O)OC)c1ccccc1COc1cc(-c2cc(C)ccc2OC)nn1C [Compound 6b] | -10.52 |  |
| CO/C=C(/C(=O)OC)c1ccccc1COc1cc(-c2ccccc2O)nn1C [Compound 5a] | -12.19 |  |
| CO/C=C(/C(=O)OC)c1ccccc1COc1cc(-c2ccccc2OCc2ccccc2)nn1C [Compound 6c] | -10.79 |  |
| CO/C=C(/C(=O)OC)c1ccccc1COc1cc(-c2cc(C)ccc2O)nn1C [Compound 5b] | -11.62 |  |
